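96-well plates; 48 h exposure; 5 concentrations. Endpoints by linear interpolation between flanking doses. Not reached: highest tested concentration assigned. GI50 = concentration required for 50% inhibition of growth. Definition used: TGI = concentration required for complete inhibition of growth.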
Experiments:
Assay in all cases: NCI tumour cell line growth inhibition, 48 h
[1] = system: ACHN renal
[2] = system: A549 NSCLC
[3] = system: HCT-116 colon
[4] = system: SK-MEL-5 melanoma
[5] = system: OVCAR-8 ovarian
[6] = system: HS 578T breast
[7] = system: IGROV1 ovarian
[8] = system: U251 CNS
[9] = system: BT-549 breast
[10] = system: HCC-2998 colon
[11] = system: RPMI-8226 leukemia

Structure (SMILES)	TGI [1] [µM]	TGI [2] [µM]	TGI [3] [µM]	TGI [4] [µM]	TGI [5] [µM]	TGI [6] [µM]	TGI [7] [µM]	TGI [8] [µM]	TGI [9] [µM]	TGI [10] [µM]	TGI [11] [µM]	GI50 [10] [µM]	GI50 [1] [µM]	GI50 [2] [µM]	GI50 [4] [µM]	GI50 [5] [µM]	GI50 [6] [µM]	GI50 [7] [µM]	GI50 [9] [µM]
NC1=CN2c3ccccc3N(CC(=O)N3CCOCC3)C2C=C1 (centres undefined)	> 100	> 100	> 100	> 100	> 100	> 100	> 100	> 100	> 100	–	–	–	–	–	–	–	–	–	–
O=C(CSCC(=O)N/N=C/c1ccc(F)cc1)N/N=C/c1ccc(F)cc1	> 100	> 100	> 100	> 100	> 100	> 100	> 100	> 100	–	> 100	> 100	–	–	–	–	–	–	–	–
O=C1OS2(OC(=O)c3cccc4cccc2c34)c2ccccc21 (centres undefined)	> 100	> 100	> 100	> 100	> 100	> 100	> 100	> 100	> 100	–	> 100	–	–	–	–	–	–	–	–
c1ccc(C[P+]2(c3ccccc3)CCCCC2)cc1	> 100	> 100	> 100	71.9	> 100	–	> 100	> 100	–	> 100	> 100	–	–	–	–	–	–	–	–
C/C(=C/CC[C@](C)(OC1OC(CO)C(O)C(O)C1OC1OC(C)C(O)C(O)C1O)[C@H]1CC[C@]2(C)[C@@H]1CC[C@@H]1[C@@]3(C)CC[C@H](O)C(C)(C)[C@@H]3C[C@H](O)[C@]12C)CO (some centres undefined)	> 100	> 100	> 100	> 100	> 100	> 100	> 100	> 100	> 100	–	> 100	–	–	–	–	–	–	–	–
C=CCn1c(-c2ccc(N=NNc3ccc(-c4n[nH]c(=S)n4CC=C)cc3)cc2)n[nH]c1=S	5.09	> 100	–	3.79	8.84	> 100	15.1	17.5	6.68	–	4.63	–	–	–	–	–	–	–	–
COC12OC3(C4OC41)C(C(=O)O[C@H]3CO[Si](C)(C)C(C)(C)C)C2S(=O)(=O)c1ccccc1 (some centres undefined)	> 83.9	> 100	> 7.06	–	> 100	> 100	–	> 7.83	> 100	> 100	11.7	–	–	–	–	–	–	–	–
CN(C)CCNc1ccccn1	> 100	> 100	> 100	> 100	> 100	> 100	> 100	> 100	> 100	> 100	–	–	–	–	–	–	–	–	–
O=c1[nH]c(=O)n(COCCO)cc1-c1ccccc1	> 100	> 100	> 100	> 100	> 100	> 100	> 100	> 100	–	> 100	> 100	–	–	–	–	–	–	–	–
C/C(=N\NC(=S)N/N=C(\C)c1ccccn1)c1ccccn1	5.7	> 100	> 100	> 100	> 100	> 100	> 100	> 100	> 100	–	> 100	–	–	–	–	–	–	–	–
O=C(/C=C/c1ccco1)c1ccc(Nc2ccnc3cc(Cl)ccc23)cc1	> 100	> 100	–	> 100	> 100	> 100	> 100	–	> 100	> 100	–	> 100	> 100	> 100	12	> 100	> 100	15.2	> 100
COc1cc(CNc2nc3cc(C(F)(F)F)ccc3nc2C(=O)O)cc(OC)c1OC	73.3	61.5	29	–	> 100	57	–	31.2	> 100	> 100	–	–	–	–	–	–	–	–	–
O=C(OCc1ccccc1[N+](=O)[O-])N1c2ccccc2[C@@]23O[C@]24CCC[C@H]3C#C/C=C\C#C[C@H]14	> 100	> 100	> 100	> 100	> 100	> 100	> 100	> 100	> 100	> 100	–	–	–	–	–	–	–	–	–
COC(=O)c1ccc2c(c1)CC1(C2)Cc2ccc3c(c2C1)CCC3 (centres undefined)	> 100	> 100	> 100	33.3	> 100	> 100	> 100	> 100	–	> 100	74.3	–	–	–	–	–	–	–	–
O=C(O)C(C1NCCS1)N1Cc2ccccc2C1 (centres undefined)	> 100	> 100	> 100	> 100	> 100	–	> 100	> 100	> 100	–	> 100	–	–	–	–	–	–	–	–

Source: PubChem BioAssay (NCI)
